Read-outs that look alike come from different tables or passages of the source.
Columns and labels:
[1] = test system: NIH 3T3 mouse fibroblast cells; assay: Mitogen-induced cell proliferation; assay type: cell-based; settings: for inhibition at 10 µM: NIH3T3, read-out: Mitogen-induced cell proliferation % Inhibition
Text: Other cell lines, e.g., cancer cells, endothelial cells and fibroblasts, as well as many others, may be used in the cell proliferation assay. Selection of a particular cell line will depend in part on the desired application, and is well within the capabilities of an ordinarily skilled artisan.

[2] = test system: MM-RU human melanoma cells; assay: SCID mice inoculated with MM-RU human melanoma cells, lung metastases; assay type: in vivo; settings: 120 mg/Kg subcutaneous daily for 10 weeks
Description: Mice with severe combined immunodeficiency disease (SCID) were inoculated via the lateral tail vein with approximately 2.5×10^6 MM-RU human melanoma cells, a cell line that produces metastases only in the lungs (Byers et al., 1993, Melanoma Res. 3:247-253). Starting on the day of inoculation, subcutaneous injections of either vehicle (control group, n=9) or CLT (120 mg/Kg; treatment group, n=10) was administered daily for a period of 10 weeks. At the end of the 10 week treatment period, the mice were sacrificed and examined for metastases.

[3] = target: T1, red cell calcium-activated potassium transport (Homo sapiens, UniProt O15554); assay: Red cell Ca2+-activated 86Rb influx inhibition after oral Clotrimazole; assay type: in vivo; settings: Subject B
T1 construct: endogenous in cells; host or cells: red cells of two normal human subjects
T1 sequence (O15554 whole entry): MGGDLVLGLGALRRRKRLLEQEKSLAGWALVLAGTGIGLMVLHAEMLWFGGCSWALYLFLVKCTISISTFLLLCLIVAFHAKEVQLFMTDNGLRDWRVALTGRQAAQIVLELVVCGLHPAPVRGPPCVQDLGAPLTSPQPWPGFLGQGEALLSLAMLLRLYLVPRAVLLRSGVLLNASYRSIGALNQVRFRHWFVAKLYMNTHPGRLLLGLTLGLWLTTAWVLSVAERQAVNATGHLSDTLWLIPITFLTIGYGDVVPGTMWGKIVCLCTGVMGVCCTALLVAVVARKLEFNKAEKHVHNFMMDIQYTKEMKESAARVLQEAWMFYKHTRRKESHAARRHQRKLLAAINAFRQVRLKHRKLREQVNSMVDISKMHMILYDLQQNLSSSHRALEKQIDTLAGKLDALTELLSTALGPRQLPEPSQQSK

[4] = target: T1, red cell calcium-activated potassium transport; assay: as above; assay type: in vivo; settings: for Ca2+-activated 86Rb influx inhibition %: Subject A
Description: Two subjects, […] (A, 72 kg) and […] (D, 56 kg), ingested one 500 mg CLT tablet every twelve hours for six days, corresponding to a daily CLT dose of 14 and 18 mg/kg, respectively.

Gardos channel = Gardos channel (Homo sapiens, UniProt O15554); assay type: binding
Gardos channel, sequence (O15554 whole entry): as above

red cell Gardos channel = red cell Gardos channel (Homo sapiens, UniProt O15554); assay: cell-based
red cell Gardos channel, sequence (O15554 whole entry): as above
Description: CLT and metabolite B (Compound 6) were incubated with a red cell suspension at 20% Hct.

[5] = test system: hepatic microsomal cytochrome P450; settings: rats; Matsuura et al., 1991; cited from earlier work
[6] = test system: Human melanoma cells (MM-RU); assay: [3H]thymidine uptake in MM-RU cells; assay type: cell-based; settings: 10 μM
Description: (§1) Human melanoma cells (MM-RU) and colon adenocarcinoma cells (HT29) were cultured in the presence and absence of 10 μM CLT metabolite B (Compound 6) as described in Benzaquen et al., 1995, Nature Medicine 1:534-540 and the level of DNA synthesis determined by measuring [^3H]thymidine uptake.

clinical = assay type: in vivo; settings: human, plasma, read-out: Levels Plasma; for concentration at 6 day of CLT dosing: CLT day 6; for concentration at 10 day (wash-out): Wash-out day 10; for concentration at 13 day (wash-out): Wash-out day 13; for concentration at 20 day (wash-out): Wash-out day 20
[7] = test system: colon adenocarcinoma cells (HT29); assay: [3H]thymidine uptake in HT29 cells; assay type: cell-based, human; settings: 10 μM
Description: as §1

[8] = target: Gardos channel of erythrocytes (Homo sapiens, UniProt O15554); assay: cell-based
Gardos channel of erythrocytes, sequence (O15554 whole entry): as above
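Throughout, for Levels Plasma: oral tablet given every 12 h for six days, about 14 mg/kg per day for this subject, with levels then followed in plasma.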

Clc1ccccc1C(c1ccccc1)(c1ccccc1)n1ccnc1 [Clotrimazole, reference compound]
inhibition at 10 µM [1]: 93%
number of microscopic metastases ([2]; SCID mice): 7±2
number of pleural metastases ([2]; SCID mice): 2±1
systemic metastatic disease or toxicity ([2]; SCID mice): did not show any evidence of systemic metastatic disease or toxicity
weight gain ([2]; SCID mice): gained weight in comparable amounts
treated animals free of macroscopic metastases ([2]; n=10): half
treated animals without evidence of microscopic metastases ([2]; n=10): two
Ca2+-activated 86Rb influx inhibition % ([3]; CLT day 3): 80 ± 28%
Ca2+-activated 86Rb influx inhibition % ([3]; CLT day 6): 83 ± 7%
Ca2+-activated 86Rb influx inhibition % ([3]; Wash-out day 8): 79 ± 21%
Ca2+-activated 86Rb influx inhibition % ([3]; Wash-out day 10): 82 ± 4%
Ca2+-activated 86Rb influx inhibition % ([3]; Wash-out day 13): 37 ± 30%
Ca2+-activated 86Rb influx inhibition % ([3]; Wash-out day 20): 0 ± 13%
Ca2+-activated 86Rb influx inhibition % ([4]; CLT day 3): 74 ± 5%
Ca2+-activated 86Rb influx inhibition % ([4]; CLT day 6): 73 ± 4%
Ca2+-activated 86Rb influx inhibition % ([4]; Wash-out day 6): 71 ± 7%
Ca2+-activated 86Rb influx inhibition % ([4]; Wash-out day 10): 75 ± 11%
Ca2+-activated 86Rb influx inhibition % ([4]; Wash-out day 13): 58 ± 9%
Ca2+-activated 86Rb influx inhibition % ([4]; Wash-out day 20): 0 ± 10%
persistence of inhibition of calcium-activated potassium transport after the drugs were discontinued ([4]; two subjects, oral CLT for six days): at least 7 days
125I-ChTX Binding (Gardos channel): 1.000
Displacement (%) (Gardos channel): 41.6%
concentration at which inhibition of K+ transport reached maximal levels (red cell Gardos channel): 5 µM
% control (red cell Gardos channel; 1 nM): 100.3%
flux (red cell Gardos channel; 1 nM): 1.155
inhibition at 0.001 µM (red cell Gardos channel; 1 nM): -0.3%
% control (red cell Gardos channel; 10 nM): 97.6%
flux (red cell Gardos channel; 10 nM): 1.124
inhibition at 0.01 µM (red cell Gardos channel; 10 nM): 2.4%
% control (red cell Gardos channel; 100 nM): 77.4%
flux (red cell Gardos channel; 100 nM): 0.892
inhibition at 0.1 µM (red cell Gardos channel; 100 nM): 22.6%
% control (red cell Gardos channel; 500 nM): 45.0%
flux (red cell Gardos channel; 500 nM): 0.518
inhibition at 0.5 µM (red cell Gardos channel; 500 nM): > 50%
% control (red cell Gardos channel; 1 μM): 21.5%
flux (red cell Gardos channel; 1 μM): 0.248
inhibition at 1 µM (red cell Gardos channel; 1 μM): 78.5%
% control (red cell Gardos channel; 5 μM): 3.3%
flux (red cell Gardos channel; 5 μM): 0.038
inhibition at 5 µM (red cell Gardos channel; 5 μM): 96.7%
% control (red cell Gardos channel; 10 μM): 3.7%
flux (red cell Gardos channel; 10 μM): 0.043
inhibition at 10 µM (red cell Gardos channel; 10 μM): 96.3%

OC(c1ccccc1)(c1ccccc1)c1ccccc1Cl [Compound 6, 2-chlorophenyl-diphenylmethanol]
induction of hepatic microsomal cytochrome P450 [5]: does not induce
inhibition of [3H]thymidine uptake versus controls [6]: about 60%
melting point: 92 to 93.5 °C
inhibition at 10 µM [1]: 31%
IC50 ([1]; NIH3T3, read-out: Mitogen-induced cell proliferation IC50): 2100 nM
concentration at 6 day of CLT dosing (clinical; oral, 500 mg, Subject A): 1100 nM
concentration at 6 day (wash-out) (clinical; oral, 500 mg, Subject A, Wash-out day 6): < 100 nM
concentration at 10 day (wash-out) (clinical; oral, 500 mg, Subject A): < 100 nM
concentration at 13 day (wash-out) (clinical; oral, 500 mg, Subject A): 0 nM
concentration at 20 day (wash-out) (clinical; oral, 500 mg, Subject A): 0 nM
concentration at 3 day of CLT dosing (clinical; oral, 500 mg, Subject B, CLT day 3): 800 nM
concentration at 6 day of CLT dosing (clinical; oral, 500 mg, Subject B): 1350 nM
concentration at 8 day (wash-out) (clinical; oral, 500 mg, Subject B, Wash-out day 8): < 100 nM
concentration at 10 day (wash-out) (clinical; oral, 500 mg, Subject B): < 100 nM
concentration at 13 day (wash-out) (clinical; oral, 500 mg, Subject B): 0 nM
concentration at 20 day (wash-out) (clinical; oral, 500 mg, Subject B): 0 nM
concentration at 3 day of CLT dosing (clinical; Subject A, CLT day 3, oral CLT 500 mg every twelve hours): 1100 nM
inhibition of [3H]thymidine uptake versus controls [7]: about 50%
125I-ChTX Binding (Gardos channel; 1 nM, red cells): 1.403
125I-ChTX Binding (Gardos channel; 10 nM, red cells): 1.399
125I-ChTX Binding (Gardos channel; 100 nM, red cells): 1.239
Displacement (%) (Gardos channel; 100 nM, red cells): 6.0%
125I-ChTX Binding (Gardos channel; 500 nM, red cells): 1.134
Displacement (%) (Gardos channel; 500 nM, red cells): 21.6%
125I-ChTX Binding (Gardos channel; 1 μM, red cells): 1.327
125I-ChTX Binding (Gardos channel; 5 μM, red cells): 1.016
Displacement (%) (Gardos channel; 5 μM, red cells): 39.2%
125I-ChTX Binding (Gardos channel; 10 μM, red cells): 0.790
Displacement (%) (Gardos channel; 10 μM, red cells): 72.9%
Displacement of 125I-ChTX binding (in words) (Gardos channel; red cells): specifically displaces
IC50 [8]: 961 nM
inhibition at 10 µM ([8]; read-out: Gardos Channel % Inhibition): 98%
IC50 (red cell Gardos channel): 720 ± 190 nM
IC50 for inhibition of K+ transport relative to IC50 for displacement of 125I-ChTX (red cell Gardos channel): two to three fold lower
concentration at which inhibition of K+ transport reached maximal levels (red cell Gardos channel): 10 µM
% control (red cell Gardos channel; 1 nM): 125.3%
flux (red cell Gardos channel; 1 nM): 1.444
inhibition at 0.001 µM (red cell Gardos channel; 1 nM): -25.3%
% control (red cell Gardos channel; 10 nM): 96.8%
flux (red cell Gardos channel; 10 nM): 1.115
inhibition at 0.01 µM (red cell Gardos channel; 10 nM): 3.2%
% control (red cell Gardos channel; 100 nM): 82.6%
flux (red cell Gardos channel; 100 nM): 0.952
inhibition at 0.1 µM (red cell Gardos channel; 100 nM): 17.4%
% control (red cell Gardos channel; 500 nM): 62.2%
flux (red cell Gardos channel; 500 nM): 0.717
inhibition at 0.5 µM (red cell Gardos channel; 500 nM): 37.8%
% control (red cell Gardos channel; 1 μM): 37.9%
flux (red cell Gardos channel; 1 μM): 0.437
inhibition at 1 µM (red cell Gardos channel; 1 μM): > 50%
% control (red cell Gardos channel; 5 μM): 21.7%
flux (red cell Gardos channel; 5 μM): 0.25
inhibition at 5 µM (red cell Gardos channel; 5 μM): 78.3%
% control (red cell Gardos channel; 10 μM): 9.8%
flux (red cell Gardos channel; 10 μM): 0.113
inhibition at 10 µM (red cell Gardos channel; 10 μM): 90.2%

— patent publication US7531573B2 (priority 1994, dated 2009)
